Test results: patent EP4610269A1, “UROKINASE PLASMINOGEN ACTIVATOR SURFACE RECEPTOR (UPAR) LIGANDS FOR DIAGNOSTIC OR THERAPEUTIC USE” (3B Pharmaceuticals GmbH, priority 2024, dated 2025)
Where a SMILES comes first, the peptide text is derived from it. Bridges are numbered along the chain shown (N, C = ends). [ ]: non-standard residue; d: D form. The star is where a group is joined. DOTA = O=C(O)CN1CCN(CC(=O)O)CCN(CC(=O)*)CCN(CC(=O)O)CC1; Phe(4-Cl) = N[C@@H](Cc1ccc(Cl)cc1)C(=O)O; Phe(4-NH2) = Nc1ccc(C[C@H](N)C(=O)O)cc1; Pro(4S-NH2) = N[C@@H]1CN[C@H](C(=O)O)C1; Pentanesulfonyl = CCCCCS(=O)(=O)*; Ser(ΨH,HPro) = O=C(O)[C@@H]1COCN1; Hyp = O=C(O)[C@@H]1C[C@@H](O)CN1; NMeE = CN[C@@H](CCC(=O)O)C(=O)O; Pentanoyl(4-Me) = CC(C)CCC(=O)*; Cha = N[C@@H](CC1CCCCC1)C(=O)O; Cit = NC(=O)NCCC[C@H](N)C(=O)O; dNva = CCC[C@@H](N)C(=O)O; NMeA = CN[C@@H](C)C(=O)O; Nle = CCCC[C@H](N)C(=O)O; dDap = NC[C@@H](N)C(=O)O; Nva = CCC[C@H](N)C(=O)O; Hexanoyl = CCCCCC(=O)*; Pentanoyl = CCCCC(=O)*

What was measured:
human uPAR (uPAR-Fc) = biological target: T1, human uPAR (uPAR-Fc) (Homo sapiens, UniProt Q03405); test: Surface plasmon resonance (SPR) assay, single cycle kinetics; assay type: binding; details: pKD category for uPAR SPR activity assay; uPAR-Fc on Protein A-Chip, 25°C; read-out: pKD CAT (converted)
T1 construct: comprising amino acids Leu23-Arg303 according to UniProt entry Q03405.1; purchased R&D Systems 10378-UK-100
T1 sequence (Q03405 23-303): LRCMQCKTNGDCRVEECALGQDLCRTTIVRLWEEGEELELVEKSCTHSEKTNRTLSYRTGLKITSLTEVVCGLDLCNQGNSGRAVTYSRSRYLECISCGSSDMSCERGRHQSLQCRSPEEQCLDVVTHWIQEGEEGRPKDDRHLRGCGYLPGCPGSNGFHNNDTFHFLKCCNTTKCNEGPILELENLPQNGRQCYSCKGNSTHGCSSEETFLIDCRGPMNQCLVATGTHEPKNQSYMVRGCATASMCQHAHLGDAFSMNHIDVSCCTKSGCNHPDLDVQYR
How it was run: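 uPAR-Fc (Leu23-Arg303 extracellular domains, human IgG1 Fc) captured on Protein A chip to ~2000 RU; single-cycle kinetics at 25°C in HEPES running buffer pH 7.4 with 0.1% DMSO. KD from double-referenced sensorgrams fitted to 1:1 Langmuir model, reported as pKD.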

[1] = biological target: T2, uPAR-expressing HEC-265 human endometrial adenocarcinoma cells (Homo sapiens, UniProt Q03405); test: Competitive FACS binding assay; details: pIC50 category of FACS binding
T2 construct: Cell surface uPAR-expressing HEC-265 human endometrial adenocarcinoma cells; host or cells: HEC-265
T2 sequence (Q03405 23-335): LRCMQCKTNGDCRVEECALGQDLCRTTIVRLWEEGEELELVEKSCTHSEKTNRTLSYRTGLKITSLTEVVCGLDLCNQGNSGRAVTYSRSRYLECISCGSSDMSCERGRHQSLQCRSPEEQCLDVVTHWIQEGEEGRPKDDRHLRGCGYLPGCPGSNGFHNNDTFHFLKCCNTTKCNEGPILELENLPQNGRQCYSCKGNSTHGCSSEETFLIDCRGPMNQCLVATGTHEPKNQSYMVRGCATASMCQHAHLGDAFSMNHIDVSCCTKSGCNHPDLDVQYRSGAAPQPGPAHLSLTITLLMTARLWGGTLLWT
How it was run: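 Competitive displacement of a 10 nM biotinylated peptide from HEC-265 cells (1 h, 4 °C, PBS/1% BSA), detected via APC-streptavidin by flow cytometry. pIC50 from four-parameter logistic fit of median fluorescence versus concentration.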

| Kd (human uPAR (uPAR-Fc)) [nM] | IC50 [1] [nM] | SMILES |
| --- | --- | --- |
| 1.58 to 10 | 12.6 to 31.6 | CCCCC(=O)N[C@H]1CSSC[C@@H](C(N)=O)NC(=O)[C@H](CCC)NC(=O)[C@H]([C@@H](C)CC)NC(=O)[C@H](C)N(C)C(=O)[C@@H]2CCCN2C(=O)[C@H](Cc2ccccc2)NC(=O)[C@H](Cc2ccc(O)cc2)NC(=O)[C@H](CCCCNC(=O)CN2CCN(CC(=O)O)CCN(CC(=O)O)CCN(CC(=O)O)CC2)NC(=O)[C@H](CCCNC(N)=O)NC1=O [UPAR-316, Pent-[Cys-Cit-Lys(DOTA)-Tyr-Phe-Pro-Nma-Ile-Nva-Cys]-NH2] (Pentanoyl-C[Cit]K(DOTA)YFP[NMeA]I[Nva]C-NH2; disulfide 1-10) |
| < 1.58 | ≤ 10 | CCCCCC(=O)N[C@H](C(=O)N[C@@H](CC(C)C)C(=O)N[C@H]1CSSC[C@@H](C(N)=O)NC(=O)[C@H](CC(C)C)NC(=O)[C@H]([C@@H](C)CC)NC(=O)[C@H](C)NC(=O)[C@@H]2CCCN2C(=O)[C@H](Cc2ccccc2)NC(=O)[C@H](Cc2ccc(O)cc2)NC(=O)[C@H](CC(C)C)NC(=O)[C@H](CC(=O)O)NC1=O)[C@@H](C)O [UPAR-318, Hex-Thr-Leu-[Cys-Asp-Leu-Tyr-Phe-Pro-Ala-Ile-Leu-Cys]-NH2] (Hexanoyl-TLCDLYFPAILC-NH2; disulfide 3-12) |
| 10 to 100 | 39.8 to 100 | CC[C@H](C)[C@@H]1NC(=O)[C@@H](C)NC(=O)[C@H](C)NC(=O)[C@H](Cc2ccccc2)NC(=O)[C@H](Cc2ccc(O)cc2)NC(=O)[C@H](CCC(N)=O)NC(=O)[C@H](CCCNC(N)=O)NC(=O)[C@@H](NC(=O)CCC(C)C)CSSC[C@@H](C(N)=O)NC(=O)[C@H](CC(C)C)NC1=O [UPAR-319, iHex-[Cys-Cit-Gln-Tyr-Phe-Ala-ala-Ile-Leu-Cys]-NH2] ({Pentanoyl(4-Me)}-C[Cit]QYFA[dA]ILC-NH2; disulfide 1-10) |
| < 1.58 | ≤ 10 | CCCCC(=O)N[C@H]1CSSC[C@@H](C(N)=O)NC(=O)[C@H](CCC)NC(=O)[C@H]([C@@H](C)CC)NC(=O)[C@@H]2C[C@@H](O)CN2C(=O)[C@@H]2CCCN2C(=O)[C@H](Cc2ccccc2)NC(=O)[C@H](Cc2ccc(N)cc2)NC(=O)[C@H](CCCCNC(=O)CN2CCN(CC(=O)O)CCN(CC(=O)O)CCN(CC(=O)O)CC2)NC(=O)[C@H](CCCNC(N)=O)NC1=O [UPAR-320, Pent-[Cys-Cit-Lys(DOTA)-Aph-Phe-Pro-Hyp-Ile-Nva-Cys]-NH2] (Pentanoyl-C[Cit]K(DOTA)[Phe(4-NH2)]FP[Hyp]I[Nva]C-NH2; disulfide 1-10) |
| 1.58 to 10 | ≤ 10 | CC[C@H](C)[C@@H]1NC(=O)[C@@H](C)NC(=O)[C@@H]2COCN2C(=O)[C@H](Cc2ccccc2)NC(=O)[C@H](Cc2ccc(O)cc2)NC(=O)[C@H](CCC(N)=O)NC(=O)[C@H](CCCNC(N)=O)NC(=O)[C@@H](NC(=O)CCC(C)C)CSSC[C@@H](C(N)=O)NC(=O)[C@H](CC(C)C)NC1=O [UPAR-321, iHex-[Cys-Cit-Gln-Tyr-Phe-Oxa-ala-Ile-Leu-Cys]-NH2] ({Pentanoyl(4-Me)}-C[Cit]QYF[Ser(ΨH,HPro)][dA]ILC-NH2; disulfide 1-10) |
| 1.58 to 10 | 12.6 to 31.6 | CCCCC(=O)N[C@H]1CSSC[C@@H](C(N)=O)NC(=O)[C@H](CCC)NC(=O)[C@H]([C@@H](C)CC)NC(=O)[C@@H](CCC)NC(=O)[C@@H]2CCCN2C(=O)[C@H](Cc2ccccc2)NC(=O)[C@H](Cc2ccc(O)cc2)NC(=O)[C@H](CCC(N)=O)NC(=O)[C@H](CCCNC(=N)N)NC1=O [UPAR-322, Pent-[Cys-Arg-Gln-Tyr-Phe-Pro-nva-Ile-Nva-Cys]-NH2] (Pentanoyl-CRQYFP[dNva]I[Nva]C-NH2; disulfide 1-10) |
| 1.58 to 10 | 12.6 to 31.6 | CCCC[C@@H]1NC(=O)[C@H](CCCNC(=N)N)NC(=O)[C@@H](NC(=O)[C@H](CC(C)C)NC(=O)[C@H](CC(=O)O)NC(C)=O)CSSC[C@H](C(N)=O)NC(=O)[C@H](CC(C)C)NC(=O)[C@H]([C@@H](C)CC)NC(=O)[C@H](C)NC(=O)[C@@H]2CCCN2C(=O)[C@H](Cc2ccccc2)NC(=O)[C@H](Cc2ccc(O)cc2)NC1=O [UPAR-323, Ac-Asp-Leu-[Cys-Arg-Nle-Tyr-Phe-Pro-Ala-Ile-Leu-cys]-NH2] (Ac-DLCR[Nle]YFPAIL[dC]-NH2; disulfide 3-12) |
| < 1.58 | ≤ 10 | CCCCC(=O)N[C@H]1CSSC[C@@H](C(N)=O)NC(=O)[C@H](CCC)NC(=O)[C@H]([C@@H](C)CC)NC(=O)[C@@H]2C[C@@H](O)CN2C(=O)[C@@H]2CCCN2C(=O)[C@H](Cc2ccccc2)NC(=O)[C@H](Cc2c[nH]cn2)NC(=O)[C@H](CCCCNC(=O)CN2CCN(CC(=O)O)CCN(CC(=O)O)CCN(CC(=O)O)CC2)NC(=O)[C@H](CCCNC(N)=O)NC1=O [UPAR-324, Pent-[Cys-Cit-Lys(DOTA)-His-Phe-Pro-Hyp-Ile-Nva-Cys]-NH2] (Pentanoyl-C[Cit]K(DOTA)HFP[Hyp]I[Nva]C-NH2; disulfide 1-10) |
| < 1.58 | ≤ 10 | CCCCC(=O)N[C@H]1CSSC[C@@H](C(N)=O)NC(=O)[C@H](CCC)NC(=O)[C@H]([C@@H](C)CC)NC(=O)[C@@H]2C[C@H](N)CN2C(=O)[C@@H]2CCCN2C(=O)[C@H](Cc2ccccc2)NC(=O)[C@H](Cc2ccc(O)cc2)NC(=O)[C@H](CCCCNC(=O)CN2CCN(CC(=O)O)CCN(CC(=O)O)CCN(CC(=O)O)CC2)NC(=O)[C@H](CCCNC(N)=O)NC1=O [UPAR-325, Pent-[Cys-Cit-Lys(DOTA)-Tyr-Phe-Pro-4Ap-Ile-Nva-Cys]-NH2] (Pentanoyl-C[Cit]K(DOTA)YFP[Pro(4S-NH2)]I[Nva]C-NH2; disulfide 1-10) |
| < 1.58 | ≤ 10 | CC(C)CCC(=O)N[C@H]1CSSC[C@@H](C(N)=O)NC(=O)[C@H](CC(C)C)NC(=O)[C@H](CC2CCCCC2)NC(=O)[C@@H](C)NC(=O)[C@@H]2CCCN2C(=O)[C@H](Cc2ccccc2)NC(=O)[C@H](Cc2ccc(O)cc2)NC(=O)[C@H](CCC(N)=O)NC(=O)[C@H](CCCNC(N)=O)NC1=O [UPAR-326, iHex-[Cys-Cit-Gln-Tyr-Phe-Pro-ala-Cha-Leu-Cys]-NH2] ({Pentanoyl(4-Me)}-C[Cit]QYFP[dA][Cha]LC-NH2; disulfide 1-10) |
| > 100 | ≥ 126 | CCCCC(=O)N[C@H]1CSSC[C@@H](C(N)=O)NC(=O)[C@H](CCC)NC(=O)[C@H]([C@@H](C)CC)NC(=O)[C@H](CCC(=O)O)N(C)C(=O)[C@@H]2CCCN2C(=O)[C@H](Cc2ccccc2)NC(=O)[C@H](Cc2ccc(O)cc2)NC(=O)[C@H](CCCCNC(=O)CN2CCN(CC(=O)O)CCN(CC(=O)O)CCN(CC(=O)O)CC2)NC(=O)[C@H](CCCNC(N)=O)NC1=O [UPAR-327, Pent-[Cys-Cit-Lys(DOTA)-Tyr-Phe-Pro-Nme-Ile-Nva-Cys]-NH2] (Pentanoyl-C[Cit]K(DOTA)YFP[NMeE]I[Nva]C-NH2; disulfide 1-10) |
| < 1.58 | ≤ 10 | CCCCCS(=O)(=O)N[C@H]1CSSC[C@@H](C(N)=O)NC(=O)[C@H](CCC)NC(=O)[C@H]([C@@H](C)CC)NC(=O)[C@@H]2C[C@@H](O)CN2C(=O)[C@@H]2CCCN2C(=O)[C@H](Cc2ccccc2)NC(=O)[C@H](Cc2ccc(O)cc2)NC(=O)[C@H](CCC(N)=O)NC(=O)[C@H](CCCNC(=N)N)NC1=O [UPAR-328, PentylSO2-[Cys-Arg-Gln-Tyr-Phe-Pro-Hyp-Ile-Nva-Cys]-NH2] (Pentanesulfonyl-CRQYFP[Hyp]I[Nva]C-NH2; disulfide 1-10) |
| < 1.58 | ≤ 10 | CCCCC(=O)N[C@H]1CSSC[C@@H](C(N)=O)NC(=O)[C@H](CCC)NC(=O)[C@H]([C@@H](C)CC)NC(=O)[C@@H](CO)NC(=O)[C@@H]2CCCN2C(=O)[C@H](Cc2ccccc2)NC(=O)[C@H](Cc2ccc(O)cc2)NC(=O)[C@H](CCC(N)=O)NC(=O)[C@H](CCCNC(=N)N)NC1=O [UPAR-329, Pent-[Cys-Arg-Gln-Tyr-Phe-Pro-ser-Ile-Nva-Cys]-NH2] (Pentanoyl-CRQYFP[dS]I[Nva]C-NH2; disulfide 1-10) |
| < 1.58 | ≤ 10 | CCCCC(=O)N[C@H]1CSSC[C@@H](C(N)=O)NC(=O)[C@H](CCC)NC(=O)[C@H]([C@@H](C)CC)NC(=O)[C@@H](CN)NC(=O)[C@@H]2CCCN2C(=O)[C@H](Cc2ccccc2)NC(=O)[C@H](Cc2ccc(O)cc2)NC(=O)[C@H](CCC(N)=O)NC(=O)[C@H](CCCNC(=N)N)NC1=O [UPAR-330, Pent-[Cys-Arg-Gln-Tyr-Phe-Pro-dap-Ile-Nva-Cys]-NH2] (Pentanoyl-CRQYFP[dDap]I[Nva]C-NH2; disulfide 1-10) |
| < 1.58 | ≤ 10 | CC[C@H](C)[C@@H]1NC(=O)[C@@H](C)NC(=O)[C@@H]2CCCN2C(=O)[C@H](Cc2ccc(Cl)cc2)NC(=O)[C@H](Cc2ccc(O)cc2)NC(=O)[C@H](CCC(N)=O)NC(=O)[C@H](CCCNC(N)=O)NC(=O)[C@@H](NC(=O)CCC(C)C)CSSC[C@@H](C(N)=O)NC(=O)[C@H](CC(C)C)NC1=O [UPAR-332, iHex-[Cys-Cit-Gln-Tyr-Pcf-Pro-ala-Ile-Leu-Cys]-NH2] ({Pentanoyl(4-Me)}-C[Cit]QY[Phe(4-Cl)]P[dA]ILC-NH2; disulfide 1-10) |
